Data taken from ChEMBL document CHEMBL1121673, “Diuretic agents related to indapamide. 1. Synthesis and activity of 1-substituted 2-(4-chloro-3-sulfamoylbenzamido)isoindolines” (1981).

Experiments:
Assay type in all cases: functional
Rattus norvegicus [1] = experiment: Total volume of urine excreted during 18 hours after single administration of 5 mg/kg of the test agent (protocol A-1) on 6 rats
Rattus norvegicus [2] = experiment: Total volume of urine excreted during 18 hours after single administration of 5 mg/kg of the test agent (protocol A-2) on 11 rats
Rattus norvegicus [3] = experiment: Total volume of urine excreted during 4 hr after oral administration of 5 mg/kg of the test agent (protocol B) on 5 male and female rats
Rattus norvegicus [4] = experiment: Amount of potassium ions excreted during 18 hours after single administration of 5 mg/kg of the test agent (protocol A-1) on 6 rats
Rattus norvegicus [5] = experiment: Amount of potassium ions excreted during 18 hours after single administration of 5 mg/kg of the test agent (protocol A-2) on 11 rats
Rattus norvegicus [6] = experiment: Amount of potassium ions excreted during 4 hr after oral administration of 5 mg/kg of the test agent (protocol B) on 5 male and female rats
Rattus norvegicus [7] = experiment: Amount of sodium ions excreted during 18 hours after single administration of 5 mg/kg of the test agent (protocol A-1) on 6 rats
Rattus norvegicus [8] = experiment: Amount of sodium ions excreted during 18 hours after single administration of 5 mg/kg of the test agent (protocol A-2) on 11 rats
Rattus norvegicus [9] = experiment: Amount of sodium ions excreted during 4 hr after oral administration of 5 mg/kg of the test agent (protocol B) on 5 male and female rats
[10] = Ratio of amount of Na+ excreted to amount of K+ excreted in urine of rat of protocol A-1 test
[11] = Ratio of amount of Na+ excreted to amount of K+ excreted in urine of rat of protocol A-2 test
[12] = Ratio of amount of Na+ excreted to amount of K+ excreted in urine of water-loaded rats
Rattus norvegicus [13] = experiment: Total volume of urine excreted during 18 hours after single administration of 5 mg/kg of the test agent (protocol A-2) on 6 rats
Rattus norvegicus [14] = experiment: Amount of potassium ions excreted during 18 hours after single administration of 5 mg/kg of the test agent (protocol A-2) on 6 rats
Rattus norvegicus [15] = experiment: Amount of sodium ions excreted during 18 hours after single administration of 5 mg/kg of the test agent (protocol A-2) on 6 rats

| Compound | Urine (Rattus norvegicus [1]) [mL] | Urine (Rattus norvegicus [2]) [mL] | Urine (Rattus norvegicus [3]) [mL] | Urine K+ (Rattus norvegicus [4]) [m equiv] | Urine K+ (Rattus norvegicus [5]) [m equiv] | Urine K+ (Rattus norvegicus [6]) [m equiv] | Urine Na+ (Rattus norvegicus [7]) [m equiv] | Urine Na+ (Rattus norvegicus [8]) [m equiv] | Urine Na+ (Rattus norvegicus [9]) [m equiv] | Ratio [10] | Ratio [11] | Ratio [12] | Urine (Rattus norvegicus [13]) [mL] | Urine K+ (Rattus norvegicus [14]) [m equiv] | Urine Na+ (Rattus norvegicus [15]) [m equiv] |
| --- | --- | --- | --- | --- | --- | --- | --- | --- | --- | --- | --- | --- | --- | --- | --- |
| NS(=O)(=O)c1cc(C(=O)NN2Cc3ccccc3C2C(=O)O)ccc1Cl (stereo not drawn) | 9.36 | 9.36 | 87.1 | 1.569 | 2.075 | 0.1305 | 1.59 | 2.199 | 0.109 | 0.984 | 1.0809 | 0.855 |  |  |  |
| NS(=O)(=O)c1cc(C(=O)NN2Cc3ccccc3C2CO)ccc1Cl (stereo not drawn) | 11.17 | 11.45 | 106 | 1.486 | 1.512 | 0.1657 | 1.622 | 1.414 | 0.2629 | 1.084 | 0.943 | 1.638 |  |  |  |
| CC1Cc2ccccc2N1NC(=O)c1ccc(Cl)c(S(N)(=O)=O)c1 (stereo not drawn) [INDAPAMIDE] | 12.83 |  | 130.6 | 2.198 |  | 0.2686 | 2.563 |  | 0.705 | 1.143 | 1.0526 | 2.738 | 16.67 | 2.78 | 2.947 |
| CC1c2ccccc2CN1NC(=O)c1ccc(Cl)c(S(N)(=O)=O)c1 (stereo not drawn) [ZIDAPAMIDE] | 11.67 |  | 127 | 1.976 |  | 0.2398 | 2.193 |  | 0.6927 | 1.128 | 1.2204 | 3.11 | 16.17 | 2.56 | 3.058 |
